The record followed here is US10899758B2, “Inhibitors of the menin-MLL interaction” (Vitae Pharmaceuticals, LLC, priority 2016, dated 2021).

A value given as a limit tells only on which side of the number the result lay.

The target of this assay is T1, menin/MLL binding (biotinylated wild-type or mutated menin and MLL-AF9 fusion protein) (Homo sapiens, UniProt O00255).
T1 construct: biotinylated (1) wild-type menin or (2) mutated menin (described in Nature (2012) Vol. 482, pp. 542-548); fused on or other part: Biotin attached chemically (Sulfo-NHS-Biotin); no fused second protein is printed for menin
T1 sequence (O00255 1-459 limits assumed): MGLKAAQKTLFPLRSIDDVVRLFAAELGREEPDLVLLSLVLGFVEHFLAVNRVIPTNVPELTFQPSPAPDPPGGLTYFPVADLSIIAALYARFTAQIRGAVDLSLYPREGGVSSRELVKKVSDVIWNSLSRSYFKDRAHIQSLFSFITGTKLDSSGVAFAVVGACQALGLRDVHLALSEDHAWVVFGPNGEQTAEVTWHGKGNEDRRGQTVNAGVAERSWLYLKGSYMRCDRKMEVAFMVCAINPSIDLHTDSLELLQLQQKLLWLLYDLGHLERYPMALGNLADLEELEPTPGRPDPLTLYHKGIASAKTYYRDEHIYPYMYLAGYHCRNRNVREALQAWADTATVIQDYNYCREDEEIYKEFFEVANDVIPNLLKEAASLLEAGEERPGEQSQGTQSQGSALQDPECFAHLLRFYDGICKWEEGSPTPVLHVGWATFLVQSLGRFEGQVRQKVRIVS
Briefly: Assay 1 (Binding Assay): AlphaLISA menin/MLL binding. The following applies: 5 nM biotinylated menin, MLL-AF9-FLAG lysate. The procedure:
Potencies of inhibitor compounds against menin/MLL binding were assessed by AlphaLISA assay using biotinylated (1) wild-type menin or (2) mutated menin (described in Nature (2012) Vol. 482, pp. 542-548) and MLL-AF9 fusion protein bearing a FLAG epitope at its C-terminus. Menin proteins were expressed in E. coli and covalently modified with biotin using EZ-Link™ Sulfo-NHS-Biotin (ThermoFisher Cat. No. 21217) according to manufacturer's protocol. MLL1-1,396 fused to AF91-92 and the C-terminal FLAG peptide was expressed in HEK293 cells and used as a lysate cleared at 21,000×g for 10 min.
Compounds (2 μL of solutions in DMSO) were dispensed in white 96-well half-area plates (Corning Cat. No. 3693) and incubated for 30 min at RT with 5 nM biotinylated menin and appropriate amount of MLL-AF9-FLAG lysate in 40 μL of 50 mM Tris-HCl buffer pH 7.4 containing 5% (v/v) DMSO, 50 mM NaCl, 0.01% (w/v) bovine serum albumin (BSA) and 1 mM DTT. To this incubation mixture, 40 μl of AlphaLISA anti-FLAG acceptor (PerkinElmer Cat. No. AL112C) and streptavidin donor (PerkinElmer Cat. No. 6760002) beads (10 μg/mL each) was added and incubation continued at RT for 60 min. Alpha (amplified luminescent proximity homogeneous assay) signal was measured on an Envision multi-label plate reader at the end of the incubation. All steps were conducted under dim fluorescent light.
These percent inhibition values were regressed against compound concentrations in the assay using four parameter logit non-linear curve fitting (XLFit, IDBS). The IC50 values were derived from the curve fitting as inflection points on the dose-response curves and are set out in Table 14 below.
For orientation: Alpha assays give light when donor and acceptor beads are brought close together.
Usually IC50 stands for the point on the concentration scale where inhibition reaches its midpoint. The low end stands for higher potency, the high end for lower potency. As to `CC(C)N(C)C(=O)c1cc(F)ccc1-n1cc(C2CCC(O)CC2)c2ccncc21` (single isomer, unassigned) [Example 53A, 5-fluoro-2-(3-(4-hydroxycyclohexyl)-1H-pyrrolo[2,3-c]pyridin-1-yl)-N-isopropyl-N-methylbenzamide], the IC50 was ≥ 1000 nM. `CC(C)N(C)C(=O)c1cc(F)ccc1-n1cc(C2CC3CN(C[C@H]4C[C@H](NS(C)(=O)=O)C4)CC3C2)c2ccncc21` (stereo partly drawn) [Example 89, 5-fluoro-N-isopropyl-N-methyl-2-(3-(2-((trans-3-(methylsulfonamido)cyclobutyl)methyl)octahydrocyclopenta[c]pyrrol-5-yl)-1H-pyrrolo[2,3-c]pyridin-1-yl)benzamide]: the IC50 was < 100 nM. Consider `CC(C)N(C)C(=O)c1cc(F)ccc1-n1cc(C2C[C@@H](C)N[C@@H](C)C2)c2ccncc21` (stereo partly drawn) [Int. 13, 2-(3-((2S,6R)-2,6-dimethylpiperidin-4-yl)-1H-pyrrolo[2,3-c]pyridin-1-yl)-5-fluoro-N-isopropyl-N-methylbenzamide], for which the IC50 is 100 to 1000 nM.

On to `CC(C)N(C)C(=O)c1cc(F)ccc1-n1cc([C@H]2CC[C@@H](N3CCCCC3)CC2)c2ccncc21` [Example 107], for which the IC50 is < 100 nM.

Take `CC(C)N(C)C(=O)c1cc(F)ccc1-n1cc([C@H]2CC[C@@H](N3CCC(C(=O)O)CC3)CC2)c2ccncc21` [Example 120, 1-(cis-4-(1-(4-fluoro-2-(isopropyl(methyl)carbamoyl)phenyl)-1H-pyrrolo[2,3-c]pyridin-3-yl)cyclohexyl)piperidine-4-carboxylic acid]: the IC50 is 100 to 1000 nM. The molecule `CC(C)N(C)C(=O)c1cc(F)ccc1-n1cc(-c2ccc3c(c2)CCNC3)c2ccncc21` [Int. 17C, 5-fluoro-N-isopropyl-N-methyl-2-(3-(1,2,3,4-tetrahydroisoquinolin-6-yl)-1H-pyrrolo[2,3-c]pyridin-1-yl)benzamide] registered an IC50 of 100 to 1000 nM. Under `Cc1c(CN2CCC(c3cn(-c4ccc(F)cc4C(=O)N(C)C)c4cncnc34)CC2)ccc2[nH]c(C#N)cc12` [Example 64, 2-(7-(1-((2-cyano-4-methyl-1H-indol-5-yl)methyl)piperidin-4-yl)-5H-pyrrolo[3,2-d]pyrimidin-5-yl)-5-fluoro-N,N-dimethylbenzamide] stands < 100 nM; under `CC(C)N(C)C(=O)c1cc(F)ccc1-n1cc(C2CCC3(CC2)OCCO3)c2ccncc21` [Int. 17A, 2-(3-(1,4-dioxaspiro[4.5]decan-8-yl)-1H-pyrrolo[2,3-c]pyridin-1-yl)-5-fluoro-N-isopropyl-N-methylbenzamide], ≥ 1000 nM. To `CC(C)N(C)C(=O)c1cc(F)ccc1-n1cc([C@H]2CC[C@@H](N3CC[C@@H](CO)C3)CC2)c2ccncc21` [Example 103, 5-fluoro-2-(3-(cis-4-((R)-3-(hydroxymethyl)pyrrolidin-1-yl)cyclohexyl)-1H-pyrrolo[2,3-c]pyridin-1-yl)-N-isopropyl-N-methylbenzamide] belongs < 100 nM. Under `CC(C)N(C)C(=O)c1cc(F)ccc1-n1cc(C2CCN(Cc3ccc(C(F)(F)F)cc3)CC2)c2ccncc21` [Example 11, 5-fluoro-N-isopropyl-N-methyl-2-(3-(1-(4-(trifluoromethyl)benzyl)piperidin-4-yl)-1H-pyrrolo[2,3-c]pyridin-1-yl)benzamide] stands < 100 nM; under `CC(C)N(C)C(=O)c1cc(F)ccc1-n1cc([C@H]2CC[C@H](NC(=O)C3CCCCC3)CC2)c2ccncc21` [Example 130, 2-(3-(trans-4-(cyclohexanecarboxamido)cyclohexyl)-1H-pyrrolo[2,3-c]pyridin-1-yl)-5-fluoro-N-isopropyl-N-methylbenzamide], ≥ 1000 nM.

Turning to `Cc1cc(F)ccc1-n1cc(C2CCN(Cc3ccc4[nH]c(C#N)cc4c3C)CC2)c2ncncc21` [Example 70, 5-((4-(5-(4-fluoro-2-methylphenyl)-5H-pyrrolo[3,2-d]pyrimidin-7-yl)piperidin-1-yl)methyl)-4-methyl-1H-indole-2-carbonitrile], the IC50 was in the range of 100 to 1000 nM. Under `CC(C)N(C)C(=O)c1cc(F)ccc1-n1cc(C2CCN(C(=O)Cc3ccccc3)CC2)c2ccncc21` [Example 133, 5-fluoro-N-isopropyl-N-methyl-2-(3-(1-(2-phenylacetyl)piperidin-4-yl)-1H-pyrrolo[2,3-c]pyridin-1-yl)benzamide] stands 100 to 1000 nM; under `CC(C)N(C)C(=O)c1cc(F)ccc1-n1cc(C2CCC(N3CCC(O)C3)CC2)c2ccncc21` (single isomer, unassigned) [Example 95A, 5-fluoro-2-(3-(4-(3-hydroxypyrrolidin-1-yl)cyclohexyl)-1H-pyrrolo[2,3-c]pyridin-1-yl)-N-isopropyl-N-methylbenzamide], < 100 nM.

`Fc1ccc(-n2cc(C3CCN(Cc4ccc5cc[nH]c5c4)CC3)c3ncncc32)cc1` [Example 68, 7-(1-((1H-indol-6-yl)methyl)piperidin-4-yl)-5-(4-fluorophenyl)-5H-pyrrolo[3,2-d]pyrimidine]: the IC50 is ≥ 1000 nM. To `CC(C)N(C)C(=O)c1cc(F)ccc1-n1c(=O)n(C2CCN(Cc3ccc4[nH]c(=O)[nH]c4c3)CC2)c2ccncc21` [Example 79, 5-fluoro-N-isopropyl-N-methyl-2-(2-oxo-1-(1-((2-oxo-2,3-dihydro-1H-benzo[d]imidazol-5-yl)methyl)piperidin-4-yl)-1,2-dihydro-3H-imidazo[4,5-c]pyridin-3-yl)benzamide] belongs ≥ 1000 nM; to `CC(C)N(C)C(=O)c1cc(F)ccc1-n1cc([C@H]2CC[C@H](N3CCC(O)CC3)CC2)c2ccncc21` [Example 108, 5-fluoro-2-(3-(trans-4-(4-hydroxypiperidin-1-yl)cyclohexyl)-1H-pyrrolo[2,3-c]pyridin-1-yl)-N-isopropyl-N-methylbenzamide], 100 to 1000 nM; to `CC(C)N(C)C(=O)c1cc(F)ccc1-n1cc(C2CCC(N3CCNC(=O)C3)CC2)c2ccncc21` (stereo not drawn) [Example 116, 5-fluoro-N-isopropyl-N-methyl-2-(3-(4-(3-oxopiperazin-1-yl)cyclohexyl)-1H-pyrrolo[2,3-c]pyridin-1-yl)benzamide], 100 to 1000 nM.

As to `CC(C)CCN1CCC(c2cn(-c3ccc(F)cc3)c3cnccc23)CC1` [Example 39, 1-(4-fluorophenyl)-3-(1-isopentylpiperidin-4-yl)-1H-pyrrolo[2,3-c]pyridine], the IC50 lay in the range of 100 to 1000 nM.

On to `CC(C)N(C)C(=O)c1cc(F)ccc1-n1cc(C2CCC(N(C)CC3CCC(NS(C)(=O)=O)CC3)CC2)c2ccncc21` (single isomer, unassigned) [Example 128A, 5-fluoro-N-isopropyl-N-methyl-2-(3-(4-(methyl((4-(methylsulfonamido)cyclohexyl)methyl)amino)cyclohexyl)-1H-pyrrolo[2,3-c]pyridin-1-yl)benzamide], for which the IC50 was < 100 nM. For the molecule `CC(C)N(C)C(=O)c1cc(F)ccc1-n1cc(C2CCC(O)CC2)c2ccncc21` (single isomer, unassigned) [Example 53, 5-fluoro-2-(3-(4-hydroxycyclohexyl)-1H-pyrrolo[2,3-c]pyridin-1-yl)-N-isopropyl-N-methylbenzamide], the IC50 was ≥ 1000 nM.

With `CC(C)N(C)C(=O)c1cc(F)ccc1-n1cc([C@H]2CC[C@@H](N3CCC[C@@H]3CO)CC2)c2ccncc21` [Example 101, 5-fluoro-2-(3-(cis-4-((R)-2-(hydroxymethyl)pyrrolidin-1-yl)cyclohexyl)-1H-pyrrolo [2,3-c]pyridin-1-yl)-N-isopropyl-N-methylbenzamide], the IC50 is < 100 nM. To `CC(C)N(C)C(=O)c1cc(F)ccc1-n1cc([C@H]2CC[C@H](N3CCN(CCO)CC3)CC2)c2ccncc21` [Example 114, 5-fluoro-2-(3-(trans-4-(4-(2-hydroxyethyl)piperazin-1-yl)cyclohexyl)-1H-pyrrolo[2,3-c]pyridin-1-yl)-N-isopropyl-N-methylbenzamide] belongs < 100 nM; to `Fc1ccc(CN2CCC(c3cn(-c4ccc(F)cc4OCC4CC4)c4cnccc34)CC2)cc1` [Example 35, 1-(2-(cyclopropylmethoxy)-4-fluorophenyl)-3-(1-(4-fluorobenzyl)piperidin-4-yl)-1H-pyrrolo[2,3-c]pyridine], < 100 nM.
